From PubChem BioAssay (NCI)
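These data come from cells grown in 96-well plates and exposed to compound for 48 hours at five concentrations. Here, GI50 denotes the concentration required for 50% inhibition of growth. TGI: concentration producing complete growth inhibition.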

What was measured:
Assay in all cases: NCI-60 cell line screen, 48 h
[1] = system: SW-620 colon
[2] = system: OVCAR-4 ovarian
[3] = system: HT29 colon
[4] = system: CAKI-1 renal
[5] = system: UO-31 renal
[6] = system: SK-MEL-5 melanoma
[7] = system: ACHN renal
[8] = system: A549 NSCLC
[9] = system: NCI-H522 lung
[10] = system: OVCAR-5 ovarian

| Structure (SMILES) | TGI [1] | TGI [2] | TGI [3] | TGI [4] | TGI [5] | TGI [6] | TGI [7] | TGI [8] | TGI [9] | TGI [10] | GI50 [1] | GI50 [2] | GI50 [3] | GI50 [4] | GI50 [5] | GI50 [6] | GI50 [8] | GI50 [10] |
| --- | --- | --- | --- | --- | --- | --- | --- | --- | --- | --- | --- | --- | --- | --- | --- | --- | --- | --- |
| COc1cccc(N/C(C)=C2/CCOC2=O)c1 | > 10 µM | > 10 µM | > 10 µM | > 10 µM | > 10 µM | > 10 µM | > 10 µM | > 10 µM | > 10 µM | > 10 µM |  |  |  |  |  |  |  |  |
| Cc1cc(C)cc(Nc2nnc3n2S(=O)(=O)c2cc(C)c(Cl)cc2S3)c1 | 21.1 µM | > 100 µM | > 100 µM | > 100 µM | > 100 µM | 24.7 µM | 47.8 µM | 45.1 µM | 22.6 µM | > 100 µM |  |  |  |  |  |  |  |  |
| COC(=O)[C@H](CNC(=O)/C=C/c1ccc(OC(C)=O)c(OC(C)=O)c1)NC(=O)/C=C/c1ccc(OC(C)=O)c(OC(C)=O)c1 | > 100 µM | > 100 µM | > 100 µM | > 100 µM |  | > 100 µM | > 100 µM | > 100 µM |  | > 100 µM |  |  |  |  |  |  |  |  |
| [N-]=[N+]=CC(=O)C1(C(=O)C=[N+]=[N-])CC1 | > 100 µM | > 100 µM | > 100 µM |  | > 100 µM | > 100 µM | > 100 µM | > 100 µM | > 100 µM | > 100 µM |  |  |  |  |  |  |  |  |
| COc1ccc(C=Nc2ccc(-c3nc4ccccc4s3)cc2)cc1OC | > 100 µM | > 100 µM | > 100 µM | > 100 µM | > 100 µM | 30.8 µM | 70.5 µM | > 100 µM | 47.4 µM | > 100 µM |  |  |  |  |  |  |  |  |
| NC(Cc1ccc(O)cn1)C(=O)NC(C(=O)O)c1ccccc1 (stereo unspecified) | > 100 µM | > 100 µM | > 100 µM | > 100 µM | > 100 µM | > 100 µM | > 100 µM | > 100 µM | > 100 µM | > 100 µM |  |  |  |  |  |  |  |  |
| CCOC(=O)/C(Br)=C1\OC(=O)c2ccccc2-c2ccccc21 | > 100 µM |  | > 100 µM | > 100 µM | > 100 µM | > 100 µM | > 100 µM | > 100 µM | 61.1 µM | > 100 µM |  |  |  |  |  |  |  |  |
| COc1ccc2c(c1)CC[C@@H]1[C@@H]2CC[C@]2(C)/C(=N/OCCN3CCCC3)CC[C@@H]12 | 3.68 µM | 24.3 µM | 3.96 µM | 3.42 µM | 7.54 µM | 3.41 µM | 15.5 µM | 7.7 µM | 11.5 µM | 10.1 µM |  |  |  |  |  |  |  |  |
| Cc1ccc(S(=O)(=O)N(CC(O)COc2ccccc2)c2c(F)c(F)cc(F)c2F)cc1 (stereo unspecified) | 85 µM | 52 µM | 33.4 µM | 37.1 µM | 41.3 µM | 30.8 µM | 54.1 µM | 72.8 µM |  | 76.3 µM |  |  |  |  |  |  |  |  |
| COc1cc(C2CC(C)(N3CCOCC3)Oc3cc4c(cc32)OCO4)cc(OC)c1OC (stereo unspecified) | > 100 µM | 8.65 µM |  | 72.1 µM | > 100 µM | 1.54 µM | > 100 µM | > 100 µM | > 100 µM | > 100 µM |  |  |  |  |  |  |  |  |
| CC(C)OP(=O)(OC(C)C)C(=NCCO)NNc1ccc([N+](=O)[O-])cc1 | > 100 µM | > 100 µM |  | > 100 µM | > 100 µM | > 100 µM | > 100 µM | > 100 µM | > 100 µM | > 100 µM |  |  |  |  |  |  |  |  |
| CCOC(=O)Cc1c(C)c2ccc(OC(C)=O)c(OC(C)=O)c2oc1=O | > 100 µM | 64 µM | 91.3 µM |  | 55.8 µM | > 100 µM | > 100 µM | > 100 µM |  | > 100 µM |  |  |  |  |  |  |  |  |
| CC1=C(C(=O)NNC(=O)Cc2ccccc2)CC(C(=O)NNC(=O)Cc2ccccc2)=C(C)N1 | > 100 µM | > 100 µM | > 100 µM | > 100 µM | > 100 µM | > 100 µM | > 100 µM | > 100 µM |  | > 100 µM |  |  |  |  |  |  |  |  |
| O=C(NN1C(=O)C(Cl)C1c1cccc(O)c1)c1ccccc1O (stereo unspecified) |  | > 100 µM | > 100 µM |  | > 100 µM | > 100 µM | > 100 µM | > 100 µM | > 100 µM |  |  |  |  |  |  |  |  |  |
| CC(=O)c1ccc(N2C(=O)C3c4[nH]c5ccccc5c4C4CCC(C(C)(C)C)CC4C3C2=O)cc1 (stereo unspecified) | 54.3 µM | 94.8 µM | 32.6 µM |  | > 100 µM | 58.8 µM | 87.9 µM | 50.9 µM | 61.9 µM |  |  |  |  |  |  |  |  |  |
| C=CCn1c(-c2cc(C(C)(C)C)c(O)c(C(C)(C)C)c2)cs/c1=N\C(P(=O)(O)O)P(=O)(O)O | > 100 µM | > 100 µM | > 100 µM | > 100 µM | > 100 µM |  | > 100 µM | > 100 µM |  | > 100 µM |  |  |  |  |  |  |  |  |
| CC[C@H](C)[C@H](NC(=O)N(CCC#N)CCN(CCN(C(=O)N[C@@H](Cc1ccccc1)C(=O)OC)c1ccccc1)C(=O)N[C@H](C(=O)OC)C(C)C)C(=O)OC | 64.8 µM | 62 µM |  | 35.3 µM | 33.8 µM | 38.4 µM | 26.7 µM | > 100 µM |  | 57.3 µM |  |  |  |  |  |  |  |  |

| Structure (SMILES) | TGI [1] | TGI [2] | TGI [3] | TGI [4] | TGI [5] | TGI [6] | TGI [7] | TGI [8] | TGI [9] | TGI [10] | GI50 [1] | GI50 [2] | GI50 [3] | GI50 [4] | GI50 [5] | GI50 [6] | GI50 [8] | GI50 [10] |
| --- | --- | --- | --- | --- | --- | --- | --- | --- | --- | --- | --- | --- | --- | --- | --- | --- | --- | --- |
| c1ccc2c(c1)nnn2CNc1ccc(N2CCCCC2)cc1 | > 100 µM | > 100 µM | > 100 µM |  | > 100 µM |  | > 100 µM | > 100 µM | > 100 µM |  |  |  |  |  |  |  |  |  |
| CN1C(=O)N(C)C2(CCN(CC(CC3OCCO3)c3ccc(F)cc3)CC2)C1=O (stereo unspecified) |  | > 100 µM | > 100 µM | > 100 µM | > 100 µM | > 100 µM | > 100 µM | > 100 µM | > 100 µM | > 100 µM |  |  |  |  |  |  |  |  |
| CC1(CO)C(O)CCC2(C)C1CCC1CC3CC12CCC3(O)CO (stereo unspecified) | > 100 µM | > 100 µM | > 100 µM | > 100 µM | 98.8 µM | > 100 µM |  | > 100 µM | > 100 µM | > 100 µM |  |  |  |  |  |  |  |  |
| O=C([CH-]C(=O)c1ccccc1)c1ccccc1.[C-]#[O+].[C-]#[O+].[Ir] | > 100 µM | > 100 µM | > 100 µM | > 100 µM | > 100 µM | > 100 µM |  | > 100 µM |  | > 100 µM | 59.4 µM | > 100 µM | 63.5 µM | 79.1 µM | 45.2 µM | 39.3 µM | 82.9 µM | > 100 µM |
| Cc1ccc(C2(O)c3ccccc3C(=O)N(C)C2(O)c2ccc(C)cc2)cc1 (stereo unspecified) | > 100 µM | 50.9 µM | > 100 µM | > 100 µM | > 100 µM | > 100 µM |  | > 100 µM | > 100 µM | > 100 µM |  |  |  |  |  |  |  |  |
| O=C(N/N=C(/COc1ccccc1)N=Cc1ccncc1)c1ccncc1 | > 100 µM | > 100 µM | > 100 µM | > 100 µM |  |  | > 100 µM | > 100 µM |  | > 100 µM |  |  |  |  |  |  |  |  |
| CCN(CC)CC1CCCCN1CC(=O)N1c2cc(Cl)ccc2NC(=O)CC1C (stereo unspecified) | > 100 µM | > 100 µM |  | > 100 µM | > 100 µM | > 100 µM | > 100 µM | > 100 µM | > 100 µM | > 100 µM |  |  |  |  |  |  |  |  |
| O=Cc1c2c(cc3c1CC1(C3)Cc3cc4c(c(C=O)c3C1)CCCC4)CCCC2 | > 100 µM | > 31.6 µM | > 31.6 µM | > 100 µM |  | > 31.6 µM | > 31.6 µM | > 31.6 µM | 27.3 µM | > 31.6 µM |  |  |  |  |  |  |  |  |
| CC(=O)Nc1ccc(NC(=O)CC(=O)Nc2ccc(NC(C)=O)cc2)cc1 | > 100 µM | > 100 µM | > 100 µM | > 100 µM | > 100 µM | > 100 µM | > 100 µM | > 100 µM | > 100 µM |  |  |  |  |  |  |  |  |  |
| CN(C)CCCNC(=O)N/N=C/c1ccc(O)cc1 | > 100 µM |  | > 100 µM | > 100 µM | > 100 µM | > 100 µM | > 100 µM | > 100 µM | > 100 µM | > 100 µM |  |  |  |  |  |  |  |  |
| COc1ccccc1-n1cnc2c1NC(C)(C)N=C2C(N)=O | > 100 µM | > 100 µM | > 100 µM | > 100 µM |  | > 100 µM | > 100 µM | > 100 µM | > 100 µM | > 100 µM |  |  |  |  |  |  |  |  |
| Cc1ccc(S(=O)(=O)NC(=O)C2S(=O)(=O)OCCOS2(=O)=O)cc1 | > 100 µM | > 100 µM | > 100 µM | > 100 µM | > 100 µM | > 100 µM |  | > 100 µM | > 100 µM |  |  |  |  |  |  |  |  |  |
| O=C1c2ccccc2N=C(c2cc3c(cc2Cl)Sc2nccn2S3(=O)=O)OS(=O)(=O)N1c1ccccc1 | > 100 µM | > 100 µM | 61 µM | > 100 µM | 91.3 µM |  | > 100 µM | > 100 µM | 25.5 µM | 78.8 µM |  |  |  |  |  |  |  |  |
| COC(CNC(=O)CNC(=O)c1ccc(C(F)(F)F)cc1)OC | > 100 µM |  | > 100 µM | > 100 µM | > 100 µM | > 100 µM | > 100 µM | > 100 µM | > 100 µM | > 100 µM |  |  |  |  |  |  |  |  |
| CCCCn1c(-c2ccccc2)cs/c1=N\N=C1C=C(C(C)(C)C)C(=O)C(C(C)(C)C)=C1 | > 100 µM | > 100 µM | > 100 µM | > 100 µM | > 100 µM |  | > 100 µM | > 100 µM |  | > 100 µM |  |  |  |  |  |  |  |  |
| CC(=N/NC(=S)N1CCCCCC1)/C(C)=N\NC(=S)N1CCCCCC1 | 5.23 µM |  | 7.08 µM | 12.4 µM | 54.3 µM | 10.8 µM | 9.67 µM | 18.1 µM | 8.97 µM | > 23.5 µM |  |  |  |  |  |  |  |  |
